Data as given in patent US20060069132A1, “Azolecarboxamide herbicides” (priority 2004, published 2006).
Where two headings read alike, the source gives them in different places.

Tests used:
cocklebur = test: Test B pre-/postemergence herbicide test; type: in vivo, Xanthium strumarium; settings: for Plant response rating, Cocklebur / Plant response rating (0 to 100 scale), Cocklebur: preemergence; for Plant response rating (0 to 100 scale), Cocklebur: 0 is no effect
Summary of the method: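 Evaluation is visual, comparing treated with control plants on a scale where 0 means no effect and 100 means full control. Treatments were preemergence, or postemergence on seedlings 2–18 cm tall, and held 13–15 days in the greenhouse.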

barnyardgrass = test: Test B flooded paddy test; type: in vivo, Echinochloa crus-galli; settings: 1000 g ai/ha, scale 0 to 100 (0 no effect, 100 complete control)
Summary of the method: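 Each value is a visual 0–100 response rating taken against controls 13 to 15 days after treatment in the greenhouse. Plants received formulated chemical postemergence at the 1- to 4-leaf stage or, in flooded paddy, at the 2-leaf stage.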

woolly cupgrass = test: Test C pre-/postemergence herbicide test; type: in vivo, Eriochloa villosa
Summary of the method: (§1)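 Visual injury scores run from 0 (no effect) to 100 (complete control), assessed relative to untreated controls 12 to 14 days after treatment in the greenhouse. Chemicals were formulated in a non-phytotoxic solvent mixture with surfactant and applied to soil after planting or to emerged plants at the 1- to 4-leaf stage.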

goosegrass = test: Test C pre-/postemergence herbicide test; type: in vivo, Eleusine indica
Summary of the method: as §1

yellow nutsedge = test: Test C pre-/postemergence herbicide test; type: in vivo, Cyperus esculentus
Summary of the method: as §1

common ragweed = test: Test C pre-/postemergence herbicide test; type: in vivo, Ambrosia elatior; parameters: key to Plant response rating, Ragweed: 0 = no effect, 100 = complete control; settings: for Plant response rating (0 = no effect, 100 = complete control), Ragweed: 125 g ai/ha
Summary of the method: as §1

[1] = test system: smallflower umbrella sedge; test: Test C flooded paddy test; type: in vivo, Cyperus difformis
[2] = 125 g ai/ha, visual rating, scale 0 (no effect) to 100 (complete control), postemergence
[3] = 500 g ai/ha, visual rating, 0 = no effect, 100 = complete control
[4] = postemergence, 500 g ai/ha, scale 0 to 100, 0 is no effect, 100 is complete control
[5] = 62 g ai/ha, preemergence, scale 0 to 100
[6] = 250 g ai/ha, scale 0-100, preemergence
[7] = 500 g ai/ha, scale 0 to 100 (0 no effect, 100 complete control), visual, 12 to 14 days, preemergence
[8] = 125 g ai/ha, scale 0 to 100 (0 no effect, 100 complete control)
[9] = 250 g ai/ha, scale of 0 to 100, 0 is no effect, 100 is complete control
[10] = 500 g ai/ha, visual rating after 12 to 14 days, scale 0 to 100 (0 no effect, 100 complete control)
[11] = 125 g ai/ha, 100 is complete control
[12] = 125 g ai/ha, scale 0 (no effect) to 100 (complete control), visual, 12 to 14 days, preemergence
[13] = Postemergence, 500 g ai/ha, scale 0 (no effect) to 100 (complete control)

CCC1=NN(C(C)(C)C)CC1C(=O)Nc1cc(C(=O)N(C)C)ccc1F (racemic) [Compound 343]
Cocklebur plant response rating (cocklebur; [2]): 0
Plant response rating, Cocklebur (cocklebur; [3]): 90
Cocklebur plant response rating (cocklebur; [4]): 20
Barnyardgrass plant response rating (barnyardgrass): 90
Plant response rating, Cupgrass, Woolly (woolly cupgrass; [5]): 40
Plant response rating (0 = no effect, 100 = complete control), Cupgrass, Woolly (woolly cupgrass; 125 g ai/ha, preemergence): 65
Plant response rating, Cupgrass, Woolly (woolly cupgrass; [6]): 70
Plant response rating, Cupgrass, Woolly (woolly cupgrass; [7]): 100
Plant response rating, Goosegrass (goosegrass; [5]): 60
Plant response rating (0 = no effect, 100 = complete control), Goosegrass (goosegrass; 125 g ai/ha, preemergence): 75
Plant response rating, Goosegrass (goosegrass; [6]): 80
Plant response rating, Goosegrass (goosegrass; [7]): 85
Plant response rating, Nutsedge, Yellow (yellow nutsedge; [5]): 5
Plant response rating (0 = no effect, 100 = complete control), Nutsedge, Yellow (yellow nutsedge; 125 g ai/ha, preemergence): 10
Plant response rating, Nutsedge, Yellow (yellow nutsedge; [6]): 60
Plant response rating, Nutsedge, Yellow (yellow nutsedge; [7]): 90
Plant response rating, Ragweed (common ragweed; [5]): 70
Plant response rating (0 = no effect, 100 = complete control), Ragweed (common ragweed; preemergence): 90
Plant response rating, Ragweed (common ragweed; [6]): 90
Plant response rating, Ragweed (common ragweed; [7]): 100
Sedge, Umbrella plant response rating ([1]; 62 g ai/ha, scale 0 to 100): 20
Sedge, Umbrella plant response rating [1, 8]: 40
Sedge, Umbrella plant response rating [1, 9]: 80
Plant response rating, Sedge, Umbrella [1, 10]: 90

CCn1nc(C(C)(C)C)cc1C(=O)Nc1cc(C(=S)N(C)C)ccn1 [Compound 334]
Plant response rating (0 to 100 scale), Cocklebur (cocklebur; [11]): 60
Cocklebur plant response rating (cocklebur; [2]): 20
Plant response rating, Cocklebur (cocklebur; [3]): 100
Cocklebur plant response rating (cocklebur; [4]): 70
Barnyardgrass plant response rating (barnyardgrass): 90
Plant response rating, Cupgrass, Woolly (woolly cupgrass; [5]): 25
Plant response rating, Cupgrass, Woolly (woolly cupgrass; [12]): 60
Plant response rating, Cupgrass, Woolly (woolly cupgrass; [6]): 85
Plant response rating, Goosegrass (goosegrass; [5]): 100
Plant response rating, Goosegrass (goosegrass; [12]): 100
Plant response rating, Goosegrass (goosegrass; [6]): 100
Plant response rating, Nutsedge, Yellow (yellow nutsedge; 31 g ai/ha, scale 0 to 100, last section of Table C, preemergence): 5
Plant response rating, Nutsedge, Yellow (yellow nutsedge; [5]): 10
Plant response rating, Nutsedge, Yellow (yellow nutsedge; [12]): 40
Plant response rating, Nutsedge, Yellow (yellow nutsedge; [6]): 55
Plant response rating, Ragweed (common ragweed; [5]): 75
Plant response rating, Ragweed (common ragweed; [6]): 100
Sedge, Umbrella plant response rating ([1]; 62 g ai/ha, scale 0 to 100): 80
Sedge, Umbrella plant response rating [1, 8]: 90
Sedge, Umbrella plant response rating [1, 9]: 90
Plant response rating, Sedge, Umbrella [1, 10]: 95

CCn1nc2c(c1C(=O)Nc1cc(C(=O)N(C)C)ccc1F)CCC2(C)C [Compound 352, N-[5-[(dimethylamino)carbonyl]-2-fluorophenyl]-2-ethyl-2,4,5,6-tetrahydro-6,6-dimethyl-3-cyclopentapyrazolecarboxamide]
Plant response rating (0 to 100 scale), Cocklebur (cocklebur; [11]): 0
pest or weed control at 125 g/ha (cocklebur; Xanthium strumarium, post-emergence, 125 g ai/ha, visual rating, scale 0 (no effect) to 100 (complete control), read-out: Cocklebur plant response rating): 0%
pest or weed control at 500 g/ha (cocklebur; Xanthium strumarium, post-emergence, postemergence, 500 g ai/ha, scale 0 to 100, 0 is no effect, 100 is complete control, read-out: Cocklebur plant response rating): 10%
pest or weed control at 500 g/ha (cocklebur; Xanthium strumarium, pre-emergence, 500 g ai/ha, visual rating, 0 = no effect, 100 = complete control, read-out: Plant response rating, Cocklebur): 0%
pest or weed control at 1000 g/ha (barnyardgrass; Echinochloa crus-galli, 336 h, read-out: Barnyardgrass plant response rating): 90%
Plant response rating (0 = no effect, 100 = complete control), Cupgrass, Woolly (woolly cupgrass; 125 g ai/ha, preemergence): 50
pest or weed control at 62 g/ha (woolly cupgrass; Eriochloa villosa, pre-emergence, 312 h, 62 g ai/ha, preemergence, scale 0 to 100, read-out: Plant response rating, Cupgrass, Woolly): 5%
pest or weed control at 250 g/ha (woolly cupgrass; Eriochloa villosa, pre-emergence, 312 h, 250 g ai/ha, scale 0-100, read-out: Plant response rating, Cupgrass, Woolly): 60%
pest or weed control at 500 g/ha (woolly cupgrass; Eriochloa villosa, pre-emergence, 312 h, 500 g ai/ha, scale 0 to 100 (0 no effect, 100 complete control), visual, 12 to 14 days, read-out: Plant response rating, Cupgrass, Woolly): 85%
Plant response rating (0 = no effect, 100 = complete control), Goosegrass (goosegrass; 125 g ai/ha, preemergence): 85
pest or weed control at 62 g/ha (goosegrass; Eleusine indica, pre-emergence, 312 h, 62 g ai/ha, preemergence, scale 0 to 100, read-out: Plant response rating, Goosegrass): 80%
pest or weed control at 250 g/ha (goosegrass; Eleusine indica, pre-emergence, 312 h, 250 g ai/ha, scale 0-100, read-out: Plant response rating, Goosegrass): 100%
pest or weed control at 500 g/ha (goosegrass; Eleusine indica, pre-emergence, 312 h, 500 g ai/ha, scale 0 to 100 (0 no effect, 100 complete control), visual, 12 to 14 days, read-out: Plant response rating, Goosegrass): 100%
Plant response rating (0 = no effect, 100 = complete control), Nutsedge, Yellow (yellow nutsedge; 125 g ai/ha, preemergence): 0
pest or weed control at 62 g/ha (yellow nutsedge; Cyperus, pre-emergence, 62 g ai/ha, preemergence, scale 0 to 100, read-out: Plant response rating, Nutsedge, Yellow): 0%
pest or weed control at 250 g/ha (yellow nutsedge; Cyperus, pre-emergence, 250 g ai/ha, scale 0-100, read-out: Plant response rating, Nutsedge, Yellow): 10%
pest or weed control at 500 g/ha (yellow nutsedge; Cyperus, pre-emergence, 500 g ai/ha, scale 0 to 100 (0 no effect, 100 complete control), visual, 12 to 14 days, read-out: Plant response rating, Nutsedge, Yellow): 50%
Plant response rating (0 = no effect, 100 = complete control), Ragweed (common ragweed; preemergence): 40
pest or weed control at 62 g/ha (common ragweed; Ambrosia artemisiifolia, pre-emergence, 62 g ai/ha, preemergence, scale 0 to 100, read-out: Plant response rating, Ragweed): 0%
pest or weed control at 250 g/ha (common ragweed; Ambrosia artemisiifolia, pre-emergence, 250 g ai/ha, scale 0-100, read-out: Plant response rating, Ragweed): 50%
pest or weed control at 500 g/ha (common ragweed; Ambrosia artemisiifolia, pre-emergence, 500 g ai/ha, scale 0 to 100 (0 no effect, 100 complete control), visual, 12 to 14 days, read-out: Plant response rating, Ragweed): 60%
pest or weed control at 62 g/ha ([1]; Cyperus difformis, 62 g ai/ha, scale 0 to 100, read-out: Sedge, Umbrella plant response rating): 50%
pest or weed control at 125 g/ha ([1]; Cyperus difformis, 125 g ai/ha, scale 0 to 100 (0 no effect, 100 complete control), read-out: Sedge, Umbrella plant response rating): 75%
pest or weed control at 250 g/ha ([1]; Cyperus difformis, 250 g ai/ha, scale of 0 to 100, 0 is no effect, 100 is complete control, read-out: Sedge, Umbrella plant response rating): 90%
pest or weed control at 500 g/ha ([1]; Cyperus difformis, 500 g ai/ha, visual rating after 12 to 14 days, scale 0 to 100 (0 no effect, 100 complete control), read-out: Plant response rating, Sedge, Umbrella): 95%

CCNC(=O)c1cccc(NC(=O)c2nn(C(C)(C)C)nc2C)c1 [Compound 392]
Plant response rating (0 to 100 scale), Cocklebur (cocklebur; [11]): 40
Cocklebur plant response rating (cocklebur; [2]): 20
Cocklebur plant response rating (cocklebur; [13]): 40
Barnyardgrass plant response rating (barnyardgrass): 90
Plant response rating, Cupgrass, Woolly (woolly cupgrass; [5]): 30
Plant response rating (0 = no effect, 100 = complete control), Cupgrass, Woolly (woolly cupgrass; 125 g ai/ha, preemergence): 40
Plant response rating, Cupgrass, Woolly (woolly cupgrass; [6]): 60
Plant response rating, Cupgrass, Woolly (woolly cupgrass; [7]): 85
Plant response rating, Goosegrass (goosegrass; [5]): 85
Plant response rating (0 = no effect, 100 = complete control), Goosegrass (goosegrass; 125 g ai/ha, preemergence): 95
Plant response rating, Goosegrass (goosegrass; [6]): 95
Plant response rating, Goosegrass (goosegrass; [7]): 98
Plant response rating, Nutsedge, Yellow (yellow nutsedge; [5]): 0
Plant response rating (0 = no effect, 100 = complete control), Nutsedge, Yellow (yellow nutsedge; 125 g ai/ha, preemergence): 10
Plant response rating, Nutsedge, Yellow (yellow nutsedge; [6]): 30
Plant response rating, Nutsedge, Yellow (yellow nutsedge; [7]): 90
Plant response rating, Ragweed (common ragweed; [5]): 60
Plant response rating (0 = no effect, 100 = complete control), Ragweed (common ragweed; preemergence): 100
Plant response rating, Ragweed (common ragweed; [6]): 100
Plant response rating, Ragweed (common ragweed; [7]): 100
Sedge, Umbrella plant response rating ([1]; 62 g ai/ha, scale 0 to 100): 70
Sedge, Umbrella plant response rating [1, 8]: 75
Sedge, Umbrella plant response rating [1, 9]: 85
Plant response rating, Sedge, Umbrella [1, 10]: 85

Cc1nn(C(C)(C)C)nc1C(=O)Nc1cccc(C(=O)N2CC=CC2)c1 [Compound 393]
Plant response rating (0 to 100 scale), Cocklebur (cocklebur; [11]): 30
Cocklebur plant response rating (cocklebur; [2]): 30
Cocklebur plant response rating (cocklebur; [13]): 60
Barnyardgrass plant response rating (barnyardgrass): 90
Plant response rating, Cupgrass, Woolly (woolly cupgrass; [5]): 30
Plant response rating (0 = no effect, 100 = complete control), Cupgrass, Woolly (woolly cupgrass; 125 g ai/ha, preemergence): 70
Plant response rating, Cupgrass, Woolly (woolly cupgrass; [6]): 90
Plant response rating, Cupgrass, Woolly (woolly cupgrass; [7]): 100
Plant response rating, Goosegrass (goosegrass; [5]): 85
Plant response rating (0 = no effect, 100 = complete control), Goosegrass (goosegrass; 125 g ai/ha, preemergence): 100
Plant response rating, Goosegrass (goosegrass; [6]): 100
Plant response rating, Goosegrass (goosegrass; [7]): 100
Plant response rating, Nutsedge, Yellow (yellow nutsedge; [6]): 50
Plant response rating, Ragweed (common ragweed; [5]): 20
Plant response rating (0 = no effect, 100 = complete control), Ragweed (common ragweed; preemergence): 100
Plant response rating, Ragweed (common ragweed; [6]): 100
Plant response rating, Ragweed (common ragweed; [7]): 100
Sedge, Umbrella plant response rating ([1]; 62 g ai/ha, scale 0 to 100): 70
Sedge, Umbrella plant response rating [1, 8]: 75
Sedge, Umbrella plant response rating [1, 9]: 80
Plant response rating, Sedge, Umbrella [1, 10]: 85
